Assay results as given in patent US10301314B2, “Compounds and methods for the prevention and treatment of tumor metastasis and tumorigenesis” (The United States of America, as represented by the …, priority 2011, dated 2019).
pIC50: −log10 of the molar value.

Experiments:
[1] = system: PC3M cell line that stably expresses GFP-PTB to mark PNCs; assay: High content assay for PNC detection (reduction of PNC prevalence); type: cell-based, human; settings: Table 4, PC3M GFP-PTB cells, 16 hrs incubation; for pIC50: Homo sapiens, PC-3M
From the text: The quantitative output for this assay is the reduction of PNC prevalence. The PNC can be detected in living cells by the expression of a green fluorescent protein (GFP) tagged to the PNC localized protein, PTB. A PC3M cell line was used that stably expresses GFP-PTB to mark PNCs. This method eliminates the need for immunofluorescent staining.
The IN Cell Analyzer 1000 automated fluorescent imaging system (GE Healthcare, Piscataway, N.J.) was used for automated image acquisition. […] The instrument acquired images of each well in a 1536-well plate with a laser-based autofocus system. To score PNC prevalence in a high-content throughput, the Multi-Target Analysis (MTA) algorithm (GE Healthcare, Investigator v3.5) to identify individual cells and granules (PNCs) within these cells was used. The nucleus was segmented via a region growing method (50 μm^2 minimum area) with light shading and noise removal to allow “touching” nuclei to be separated. Granules in the nucleus (PNCs) were segmented using a multiscale top hat method, which measures granules of 1 to 2 μm in size and used a smart masking method to identify the boundaries of each segmented granule. The algorithm was optimized and validated using positive and negative controls (50 μM camptothecin and DMSO, respectively). In particular, the MTA algorithm allows for the identification of multiple subcellular compartments and organelles (or granules) within those compartments. In this instance, the algorithm's capability to identify objects within the same color channel that only differ in size or fluorescent intensity was utilized. Also, the algorithm allows for building complex hierarchical classification systems, using output measures within the algorithm to filter and define subpopulations. For this particular assay, PNC-positive cells were scored when 1 to 3 PNC granules were detected per nucleus. Cells that contained 0 granules were scored as PNC negative, and cells with >3 granules were assumed to be false positives (very few cells have more than 3 PNCs in one focus plane), and were also scored as PNC negative.

[2] = system: PC3M reporter cell line stably expressing the PTB-GFP; assay: ATP quantitation assay (ATPLite); type: cell-based, human; settings: Table 4, PC3M cells, 24 hrs incubation; for pIC50: Homo sapiens, PC-3M
Procedure: This follow-up assay was conducted to measure the effect of compounds on cell health by measuring ATP levels (ATPLite™). ATPLite™ is an ATP monitoring system based on firefly (Photinus pyralis) luciferase. The level of ATP in a metabolically active cell is a general marker for its viability. ATP levels are often reduced during necrosis or apoptosis. In this assay, the luciferase enzyme catalyzes the conversion of the added substrate D-luciferin to oxyluciferin and light with ATP. Thus, the emitted light is proportional to the ATP concentration. For this assay, the highly metastatic PC3M reporter cell line stably expressing the PTB-GFP was provided by Professor Sui Huang of Northwestern University. The media and cell culture reagents were purchased from Invitrogen (Carlsbad, Calif.), ATPLite™ came from PerkinElmer.

pIC50 [1]	pIC50 [2]	ATP IC50(μM) [2]	PNC IC50(μM) [1]	SMILES
6.53	4.12	–	–	N=c1c2c(-c3ccccc3)c(-c3ccccc3)n(Cc3ccccc3)c2ncn1C1CCCC[C@H]1CO (some centres unmarked) [Compound 66]
6.53	4.62	–	–	N=c1c2c(-c3ccccc3)c(-c3ccccc3)n(CCc3ccccc3)c2ncn1CCC1CCC(O)CC1 (centres unmarked) [Compound 67]
6.53	4.42	–	–	N=c1c2c(-c3ccccc3)c(-c3ccccc3)n(CCc3ccccc3)c2ncn1C1CCCC[C@H]1O (some centres unmarked) [Compound 68]
6.43	4.72	–	–	CO[C@H]1CC[C@H](n2cnc3c(c(-c4ccccc4)c(-c4ccccc4)n3Cc3ccc(OC(F)(F)F)cc3)c2=N)CC1 [Compound 69]
6.43	4.62	–	–	N=c1c2c(-c3ccccc3)c(-c3ccccc3)n(Cc3ccc(OC(F)(F)F)cc3)c2ncn1[C@H]1CC[C@H](O)CC1 [Compound 70]
6.43	3.92	–	–	N=c1c2c(-c3ccccc3)c(-c3ccccc3)n(CCc3ccccc3)c2ncn1C1CCOCC1 [Compound 71]
6.33	4.62	–	–	N=c1c2c(-c3ccccc3)c(-c3ccccc3)n(Cc3ccccc3)c2ncn1CCNc1ccncc1 [Compound 72]
6.23	4.62	–	–	N=c1c2c(-c3ccccc3)c(-c3ccccc3)n(Cc3ccccc3)c2ncn1C[C@@H]1CCCC[C@H]1O [Compound 73]
6.13	4.62	–	–	N=c1c2c(-c3ccccc3)c(-c3ccccc3)n(Cc3ccc(OC(F)(F)F)cc3)c2ncn1CCCO [Compound 74]
6.03	4.62	–	–	N=c1c2c(-c3ccccc3)c(-c3ccccc3)n(Cc3ccc(OC(F)(F)F)cc3)c2ncn1C1CCOCC1 [Compound 75]
6.03	4.32	–	–	COc1ccc(Cn2c(-c3ccccc3)c(-c3ccccc3)c3c(=N)n(CC4CCOCC4)cnc32)cc1 [Compound 76]
5.93	4.02	–	–	COc1ccc(Cn2c(-c3ccccc3)c(-c3ccccc3)c3c(=N)n(CCCO)cnc32)cc1 [Compound 77]
5.83	4.52	–	–	N=c1c2c(-c3ccccc3)c(-c3ccccc3)n(CC3CCCCC3)c2ncn1[C@H]1CC[C@H](O)CC1 [Compound 78]
5.73	3.42	–	–	N=c1c2c(-c3ccccc3)c(-c3ccccc3)n(Cc3ccc(S(N)(=O)=O)cc3)c2ncn1CC1CCOCC1 [Compound 79]
5.73	4.67	–	–	N=c1c2c(-c3ccccc3)c(-c3ccccc3)n(CC3CCCCC3)c2ncn1C1CCCC[C@H]1O (some centres unmarked) [Compound 80]
5.73	4.12	–	–	N=c1c2c(-c3ccccc3)c(-c3ccccc3)n(CC3CC3)c2ncn1CCCO [Compound 81]
5.63	4.52	–	–	N=c1c2c(-c3ccccc3)cn(Cc3ccccc3)c2ncn1C1CCN(Cc2ccccc2)CC1 [Compound 82]
5.53	4.62	–	–	C[C@H]([C@@H](O)c1ccccc1)n1cnc2c(c(-c3ccccc3)c(-c3ccccc3)n2Cc2ccccc2)c1=N [Compound 83]
5.53	4.62	–	–	N=c1c2c(-c3ccccc3)c(-c3ccccc3)n(Cc3ccc(OC(F)(F)F)cc3)c2ncn1[C@H]1CC[C@@H](O)CC1 [Compound 84]
5.53	4.62	–	–	N=c1c2c(-c3ccccc3)c(-c3ccccc3)n(Cc3ccccc3)c2ncn1CC1CCOC1 (centres unmarked) [Compound 85]
5.43	4.62	–	–	N=c1c2c(-c3ccccc3)c(-c3ccccc3)n(CC3CCCCC3)c2ncn1[C@H]1CC[C@@H](O)CC1 [Compound 86]
5.33	4.22	–	–	N=c1c2c(-c3ccccc3)c(-c3ccccc3)n(CCc3ccccc3)c2ncn1CC1CCOC1 (centres unmarked) [Compound 87]
5.33	4.52	–	–	N=c1c2c(-c3ccccc3)c(-c3ccccc3)n(Cc3ccccc3)c2ncn1CC1CCOCC1 [Compound 88]
5.23	4.62	–	–	N=c1c2c(-c3ccc4c(c3)OCO4)c(-c3ccc4c(c3)OCO4)n(Cc3ccccc3)c2ncn1C1CCOCC1 [Compound 89]

pIC50 [1]	pIC50 [2]	ATP IC50(μM) [2]	PNC IC50(μM) [1]	SMILES
5.23	4.12	–	–	N=c1c2c(-c3ccccc3)c(-c3ccccc3)n(CCc3ccccc3)c2ncn1CC1CCOCC1 [Compound 90]
5.23	4.52	–	–	N=c1c2c(-c3ccccc3)c(-c3ccccc3)n(Cc3ccc(OC(F)(F)F)cc3)c2ncn1CC1CCOCC1 [Compound 91]
5.13	4.22	–	–	COc1ccc(-c2c(-c3ccc(OC)cc3)n(Cc3ccccc3)c3ncn([C@H]4CC[C@H](OC)CC4)c(=N)c23)cc1 [Compound 93]
5.03	4.62	–	–	COc1ccc(-c2c(-c3ccc(OC)cc3)n(Cc3ccccc3)c3ncn([C@H]4CC[C@H](O)CC4)c(=N)c23)cc1 [Compound 94]
4.93	4.62	–	–	N=c1c2c(-c3ccccc3)c(-c3ccccc3)n(CC3CCCCC3)c2ncn1CC1CCOCC1 [Compound 95]
4.93	4.52	–	–	N=c1c2c(-c3ccccc3)c(-c3ccccc3)n(Cc3ccccc3)c2ncn1CCCN1CCN(c2ccccc2)CC1 [Compound 96]
4.83	3.92	–	–	COc1ccc(Cn2c(-c3ccccc3)c(-c3ccccc3)c3c(=N)n(N4CCOCC4)cnc32)cc1 [Compound 98]
4.83	–	inactive	–	N=c1c2c(-c3ccccc3)cn(Cc3ccccc3)c2ncn1C(CO)(CO)CO [Compound 99]
4.83	4.32	–	–	COc1ccc(-c2c(-c3ccc(OC)cc3)n(Cc3ccccc3)c3ncn(C4CCCC[C@H]4O)c(=N)c23)cc1 (some centres unmarked) [Compound 100]
4.83	4.62	–	–	N=c1c2c(-c3ccccc3)c(-c3ccccc3)n(CC3CCCCC3)c2ncn1C[C@H]1CCCC[C@@H]1O [Compound 101]
4.80	4.59	–	–	N=c1c2c(-c3ccccc3)c(-c3ccccc3)n(Cc3ccco3)c2ncn1Cc1ccccc1 [Compound 102]
4.73	4.62	–	–	COc1ccc(-c2c(-c3ccc(OC)cc3)n(Cc3ccccc3)c3ncn(CCO)c(=N)c23)cc1 [Compound 103]
4.63	4.52	–	–	COc1ccc(-c2c(-c3ccc(OC)cc3)n(Cc3ccccc3)c3ncn(C4CCOCC4)c(=N)c23)cc1 [Compound 104]
4.63	3.52	–	–	N=c1c2c(-c3ccccc3)c(-c3ccccc3)n(Cc3ccc(S(N)(=O)=O)cc3)c2ncn1CCCO [Compound 105]
4.63	4.52	–	–	N=c1c2c(-c3ccccc3)c(-c3ccccc3)n(CC3CCCCC3)c2ncn1CCCO [Compound 106]
4.60	4.49	–	–	N=c1c2c(-c3ccccc3)c(-c3ccccc3)n(Cc3ccco3)c2ncn1CCCN1CCOCC1 [Compound 107]
4.53	4.42	–	–	N=c1c2c(-c3ccccc3)c(-c3ccccc3)n(Cc3ccccc3)c2ncn1[C@H](CO)Cc1ccccc1 [Compound 108]
4.33	4.02	–	–	N=c1c2c(-c3ccccc3)cn(Cc3ccccc3)c2ncn1CCCCCO [Compound 109]
4.33	4.52	–	–	N=c1c2c(-c3ccccc3)cn(Cc3ccc(Br)cc3)c2ncn1CCCN1CCN(c2ccccc2)CC1 [Compound 110]
4.03	3.92	–	–	N=c1c2c(-c3ccccc3)cn(Cc3ccccc3)c2ncn1[C@H](CO)Cc1ccccc1 [Compound 111]
–	4.22	–	inactive	COc1ccc(Cn2c(-c3ccccc3)c(-c3ccccc3)c3c(=N)n([C@H](C)[C@@H](O)c4ccccc4)cnc32)cc1 [Compound 112]
–	4.52	–	inactive	COc1ccc(-c2c(-c3ccc(OC)cc3)n(Cc3ccccc3)c3ncn(C4CCCC[C@H]4CO)c(=N)c23)cc1 (some centres unmarked) [Compound 113]
–	–	inactive	inactive	COC(=O)C[C@H](C(=O)OC)n1cnc2c(c(-c3ccccc3)cn2Cc2ccc(Br)cc2)c1=N [Compound 114]
–	3.92	–	inactive	COCCn1cnc2c(c(-c3ccccc3)cn2Cc2ccccc2)c1=N [Compound 115]

SMILES	pIC50 [1]	pIC50 [2]	ATP IC50(μM) [2]	PNC IC50(μM) [1]
CC[Si](CC)(CC)OCCCn1cnc2c(c(-c3ccccc3)cn2Cc2ccc(Br)cc2)c1=N [Compound 116]	–	–	inactive	inactive
